Test results: ChEMBL document CHEMBL1132874, “Synthesis and structure-activity relationship of novel pyridyl ethers for the nicotinic acetylcholine receptor” (Bioorg Med Chem Lett, 2000)
pIC50: −log10 of the molar value.

These compounds were tested against Neuronal acetylcholine receptor; alpha4/beta2 (Rattus norvegicus, UniProt P09483+P12390) (assay: Evaluated for binding affinity towards nicotinic acetylcholine receptor alpha4-beta2).
Format: protein-complex assay

Neuronal acetylcholine receptor; alpha4/beta2, sequence (P09483 whole entry): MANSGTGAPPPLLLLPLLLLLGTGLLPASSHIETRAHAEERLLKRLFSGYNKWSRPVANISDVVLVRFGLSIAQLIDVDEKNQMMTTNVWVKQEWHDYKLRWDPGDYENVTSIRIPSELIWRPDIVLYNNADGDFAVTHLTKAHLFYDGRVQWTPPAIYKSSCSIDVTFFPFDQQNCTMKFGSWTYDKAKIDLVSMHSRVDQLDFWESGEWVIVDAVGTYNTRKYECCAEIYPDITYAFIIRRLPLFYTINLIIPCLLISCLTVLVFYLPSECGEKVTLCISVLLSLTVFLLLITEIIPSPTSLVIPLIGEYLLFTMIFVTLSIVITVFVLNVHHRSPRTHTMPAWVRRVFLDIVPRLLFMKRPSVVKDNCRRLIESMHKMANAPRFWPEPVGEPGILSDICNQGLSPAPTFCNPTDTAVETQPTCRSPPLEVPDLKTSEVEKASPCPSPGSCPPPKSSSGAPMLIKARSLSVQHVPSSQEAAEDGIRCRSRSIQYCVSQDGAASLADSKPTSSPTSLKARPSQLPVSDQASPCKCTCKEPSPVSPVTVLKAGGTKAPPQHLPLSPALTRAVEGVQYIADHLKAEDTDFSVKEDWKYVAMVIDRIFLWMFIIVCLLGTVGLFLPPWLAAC
Neuronal acetylcholine receptor; alpha4/beta2, sequence (P12390 whole entry): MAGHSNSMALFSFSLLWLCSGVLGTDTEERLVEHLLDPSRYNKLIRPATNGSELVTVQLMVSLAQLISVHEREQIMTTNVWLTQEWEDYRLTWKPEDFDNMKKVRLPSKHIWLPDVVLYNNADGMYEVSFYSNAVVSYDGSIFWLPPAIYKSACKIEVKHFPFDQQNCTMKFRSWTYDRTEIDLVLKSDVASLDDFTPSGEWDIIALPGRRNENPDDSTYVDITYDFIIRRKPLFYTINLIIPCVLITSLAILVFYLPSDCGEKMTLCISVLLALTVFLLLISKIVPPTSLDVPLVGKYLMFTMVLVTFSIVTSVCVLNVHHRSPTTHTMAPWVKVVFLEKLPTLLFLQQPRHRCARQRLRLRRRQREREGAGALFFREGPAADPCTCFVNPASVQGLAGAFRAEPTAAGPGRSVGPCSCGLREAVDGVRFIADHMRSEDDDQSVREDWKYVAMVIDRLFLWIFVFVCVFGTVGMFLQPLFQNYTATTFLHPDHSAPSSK

Going from `c1cc(-c2cncc(O[C@@H]3CCNC3)c2)ccn1` to `c1ccc(-c2cncc(O[C@@H]3CCNC3)c2)cc1`, the pIC50 falls from 6.24 to 5.74 (0.50 log units).

`Clc1cccc(-c2cc(O[C@@H]3CCNC3)cnc2Cl)c1` and `Clc1ncc(O[C@@H]2CCNC2)cc1-c1ccccc1` are within 0.2 log units of each other in pIC50: 6.99 for the first, 7.12 for the second.

Compared with `Clc1cccc(-c2cncc(O[C@@H]3CCNC3)c2)c1`, `N#Cc1ccc(-c2cncc(O[C@@H]3CCNC3)c2)cc1` is 0.23 log units higher in pIC50: 6.03 for the first, 6.26 for the second.

Going from `Cc1cc(O[C@@H]2CCNC2)cnc1Cl` to `C=Cc1cc(O[C@@H]2CCNC2)cnc1Cl`, the pIC50 falls from 7.19 to 6.85 (0.34 log units). The first is the more potent here.

Compared with `C=Cc1cncc(O[C@@H]2CCNC2)c1`, `C#Cc1cncc(O[C@@H]2CCNC2)c1` is 1.16 log units higher in pIC50: 6.05 for the first, 7.21 for the second. The second is the more potent here.

`c1cncc(OC2CNC2)c1` and `CCN1CCC(Oc2cccnc2)C1` (stereo not given) cannot be ordered by pIC50: under 5.00 for the first, under 5.00 for the second.

First: CC(C)N1CCC(Oc2cccnc2)C1 (stereo not given)
Second: Clc1ncc(O[C@@H]2CCNC2)cc1-c1ccncc1
The pIC50 of the first is lower: under 5.00 for the first, 7.19 for the second.

In the case of `C#Cc1cc(O[C@@H]2CCNC2)cnc1Cl`, the pIC50 was 7.34.
